Here are results for one compound from US10632148B2, “Growth control of oral and superficial organisms using gallium compounds” (MOUNT SINAI SCHOOL OF MEDICINE, priority 2005, dated 2020).

One data set relates to Porphyromonas gingivalis. It is filed as cell-based, Porphyromonas gingivalis ATCC 33277.
For data set [1] the following is noted: healthy adults, intravenous infusion for at least 7 days; cited from earlier work.
The next data set deals with Campylobacter jejuni. The data set can be described thus: Susceptibility to gallium nitrate, MIC/MBC, microdilution broth method. It is filed as cell-based, Campylobacter jejuni ATCC 29428. To be noted: Muller Hinton broth, tryptic soy agar with 5% sheep blood, 36° C. for 48 hours, 4.9 × 10^5 CFU/ml. How it is done: (§1) Susceptibility of various microorganisms to gallium was tested by determining the minimum inhibitory concentration (MIC) and minimum bactericidal concentration (MBC) for each microorganism using gallium nitrate. In general, MIC is determined by (i) mixing a series of broths, each containing a standard number of microorganisms, with serially diluted solutions of the gallium compound; and (ii) determining the MIC, after incubation, that is the lowest concentration of the gallium compound that has inhibited the growth of the microorganism. The lower the MIC, the more susceptible the organism is. The MBC is determined by subculturing an aliquot of each sample from the MIC test on an appropriate agar plate containing no gallium compound. After incubation, the MBC is determined to be the lowest concentration of the gallium compound at which no growth is observed.
(§2) Specifically, in the present experiment, two grams of gallium nitrate powder were dissolved in 10 ml of filter-sterilized deionized water and the resulting 20% (w/v) (i.e., 200 mg/ml) solution was once again filter-sterilized. […]
(§3) The growth of the microorganisms were determined by visual observation of turbidity in the samples. […]
On the technique in general: Dilution methods test growth across graded concentrations, often in twofold steps.

Another data set has as its system Streptococcus mutans. The data set is described as above. It is filed as cell-based, Streptococcus mutans ATCC 25175. To be noted: Brain Heart Infusion broth, blood agar, 36° C. for 48 hours, 4.1 × 10^6 CFU/ml. On the procedure:
as §1, §2, §3

The test system of another data set is Pseudomonas aeruginosa. The data set can be described thus: Susceptibility to gallium nitrate, MIC/MBC, macrodilution broth method. Type of data set: cell-based, Pseudomonas aeruginosa ATCC 15442. The following applies: Muller Hinton broth, tryptic soy agar with 5% sheep blood, 36° C. for 48 hours, 7.6 × 10^5 CFU/ml.
Data set [2] has as its system Vancomycin-resistant Enterococcus faecalis (VRE). Described as above. It is filed as cell-based, Enterococcus faecalis ATCC 51575. The following applies: Muller Hinton broth, tryptic soy agar with 5% sheep blood, 36° C. for 48 hours, 3.9 × 10^5 CFU/ml.
In data set [3] the test system is Methicillin-resistant Staphylococcus aureus (MRSA). Described as above. Type of data set: cell-based, Staphylococcus aureus ATCC 33592. To be noted: Muller Hinton broth, tryptic soy agar with 5% sheep blood, 36° C. for 48 hours, 5.2 × 10^5 CFU/ml.
The test system of another data set is Salmonella typhi. The description is as above. The following applies: Muller Hinton broth, tryptic soy agar with 5% sheep blood, 36° C. for 48 hours, 8.3 × 10^5 CFU/ml. Type of data set: cell-based, Salmonella typhi ATCC 6539.
A further data set deals with Escherichia coli O157:H7. The data set can be described thus: Susceptibility to gallium nitrate, MIC/MBC, microdilution broth method. It is filed as cell-based, Escherichia coli O157:H7 ATCC 35150. To be noted: Muller Hinton broth, tryptic soy agar with 5% sheep blood, 36° C. for 48 hours, 1.38 × 10^6 CFU/ml. On the procedure:
as §1, §2, §3

For the next data set, the system named is Candida albicans. Described as above. It is filed as cell-based, Candida albicans ATCC 10231. The following applies: 27° C. for 48 hours, 9.75 × 10^5 CFU/ml. How it is done:
as §1, §2, §3

Broadly, the MIC is the lowest concentration found to suppress growth. The low end stands for inhibition by little substance, the high end for a need for much substance. For `O=[N+]([O-])[O-].O=[N+]([O-])[O-].O=[N+]([O-])[O-].[Ga+3]` [gallium nitrate], the MBC against Porphyromonas gingivalis is <780 µg/mL; against Campylobacter jejuni, <780 µg/mL; against Streptococcus mutans it was 5000 µg/mL; in the data set on Pseudomonas aeruginosa, 6250 µg/mL; in data set [2] it was 25000 µg/mL; in data set [3], 12500 µg/mL. Also, the MBC in the data set with Salmonella typhi is 6250 µg/mL; against Escherichia coli O157:H7 it was 6250 µg/mL; against Candida albicans (Sabouraud dextrose agar), >100000 µg/mL. Besides, the tolerated dose result in data set [1] was “at least 200 mg/m^2/day”. Besides, in the data set on Candida albicans (Sabouraud Dextrose broth), the minimum inhibitory concentration (MIC) turned out to be 10000 µg/mL.
